The text below walks through data of US6407081B1, “Method for inhibiting cytokine production by cells” (Previsan AG, priority 1997, dated 2002).

One data set concerns IL-5. The data set can be described thus: IL-5 production by PHA/PMA-stimulated mononuclear cells, ELISA (Example 7). Conditions: human mononuclear cells, PHA + PMA, 48 h. The data set is classed as cell-based. As for the experimental part:
(§1) 200 ml of blood are taken and heparinised from healthy male and female volunteers. Mononuclear cells are isolated by Ficoll-Hypaque centrifugation and resuspended in a medium consisting of RPMI 1640 complemented by 5% autologous serum, […] of glutamine, […] of penicillin, 10 μg/ml of streptomycin, 10 μg/ml of phytohaemagglutinin (PHA), 10 μg/ml of phorbol myristate acetate (PMA) and test compounds as stated per individual experiment at a cellular density of 2,000,000 per ml. The cells are distributed in 96 well microtitre plates in 250 μl portions per well and incubated for 48 hours at 37° C. The supernatants are then harvested and the IL-2 and IL-5 concentrations quantified by a standard ELISA assay using a biotin/streptavidin system. By way of variant, PHA was replaced with 0.1 μg/ml of monoclonal antibodies directed against human CD3 in order to achieve more specific activation of the T cells.

The subject of another data set is IL-2. The data set can be described thus: IL-2 production by PHA/PMA-stimulated mononuclear cells, ELISA (Example 7). It is filed as cell-based. Conditions: human mononuclear cells, PHA + PMA, 48 h. As for the experimental part: as §1
(In an ELISA, binding on a coated surface is turned into a signal by an enzyme label.)

Another data set has as its system tumour necrosis factor. Conditions: dose of 1 mmol; endotoxin-induced activation of alveolar macrophages; cited from earlier work.
For data set [1] the following is noted: medium not stated; cited from earlier work.

`O=C(N=NC(=O)N1CCOCC1)N1CCOCC1` [C, 1,1′-(azodicarbonyl)dimorpholine]: the “IL-5 inhibition (%)” value in the data set on IL-5 (10 μM) is given as 37%; with IL-5 (32 μM), 51%. Also, the “IL-2 inhibition (%)” value in the data set with IL-2 (10 μM) is 6%; with IL-2 (32 μM), 9%.
For orientation: inhibition means the share of the control response that was lost under treatment. With `O=C(N=NC(=O)N1CCCCC1)N1CCCCC1` [B, 1,1′-(azodicarbonyl)dipiperidine], the inhibition at 10 µM in the data set with IL-5 (10 μM) came out at 17%; in the data set with IL-2 (10 μM) it was 0.2%. In addition, the values for the inhibition at 32 µM with IL-5 (32 μM) and with IL-2 (32 μM) were 39% and 11%, respectively.
In the case of `CN(C)C(=O)N=NC(=O)N(C)C` [A, 1,1′-azobisdimethylformamide], the “production of tumour necrosis factor” value in the data set with tumour necrosis factor is reported as “insignificant increase”. Moreover, the half-life result in data set [1] is reported as “only a few minutes”. Also, the “IL-5 inhibition (%)” value in the data set on IL-5 (10 μM) was 12%; in the data set on IL-5 (32 μM), 29%. Besides, the “IL-2 inhibition (%)” value in the data set on IL-2 (10 μM) is listed as 3%; with IL-2 (32 μM) it was 28%.
